Experimental data reported in ChEMBL document CHEMBL2303647, “Data associated with the publication PLoS ONE, 8(3), e57888, (2013) PMID: 23505445. Compounds: GSK PKIS; Assays: NIH NCATS”.
“Also recorded” adds a separate entry of the source.

Key:
[1] = biological target: T1, Coelenterazine h 2-monooxygenase (Renilla reniformis, UniProt P27652)
T1 sequence (P27652 whole entry): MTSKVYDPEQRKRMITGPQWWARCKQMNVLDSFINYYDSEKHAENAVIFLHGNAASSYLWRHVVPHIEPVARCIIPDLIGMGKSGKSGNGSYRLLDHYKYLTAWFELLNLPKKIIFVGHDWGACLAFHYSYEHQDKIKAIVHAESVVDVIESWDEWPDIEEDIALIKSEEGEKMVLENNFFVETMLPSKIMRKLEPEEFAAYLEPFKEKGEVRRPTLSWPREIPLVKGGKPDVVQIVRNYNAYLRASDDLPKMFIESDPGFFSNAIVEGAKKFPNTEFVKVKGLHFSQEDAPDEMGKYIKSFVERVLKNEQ
Description: GSK_PKIS: Inhibition of Sea Pansy Luciferase (Data from PubChem: AID 652015) [NIH NCATS]

[2] = biological target: Luciferin 4-monooxygenase (Photinus pyralis, UniProt P08659)
Sequence of Luciferin 4-monooxygenase (P08659 whole entry): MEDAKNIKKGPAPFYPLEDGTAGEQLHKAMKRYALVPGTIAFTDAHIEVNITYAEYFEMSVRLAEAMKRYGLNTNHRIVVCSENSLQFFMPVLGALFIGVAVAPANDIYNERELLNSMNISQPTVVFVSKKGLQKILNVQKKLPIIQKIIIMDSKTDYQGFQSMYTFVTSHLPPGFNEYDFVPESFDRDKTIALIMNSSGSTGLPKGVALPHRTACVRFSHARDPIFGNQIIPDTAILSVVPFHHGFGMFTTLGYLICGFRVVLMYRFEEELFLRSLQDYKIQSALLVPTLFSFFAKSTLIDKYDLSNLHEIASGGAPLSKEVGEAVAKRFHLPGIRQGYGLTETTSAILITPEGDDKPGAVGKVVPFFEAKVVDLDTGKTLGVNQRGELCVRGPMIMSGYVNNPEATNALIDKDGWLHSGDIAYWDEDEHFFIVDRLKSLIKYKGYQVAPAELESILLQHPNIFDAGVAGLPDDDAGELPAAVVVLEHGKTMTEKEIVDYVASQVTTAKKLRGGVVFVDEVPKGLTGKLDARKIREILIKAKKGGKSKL
Description: GSK_PKIS: Inhibition of Firefly Luciferase (Data from PubChem: AID 652016) [NIH NCATS]

AC50 ([2]; read-out: AC50) [µM]	AC50 ([1]; read-out: AC50) [µM]	Compound	AC50 [1]	AC50 [2]
		Cl.c1ccc(Oc2ccc(Nc3ncc(-c4ccccc4)o3)cc2)cc1 [GW641155A]	Phenotype: Inactive; Curve_Description: None	Phenotype: Inactive; Curve_Description: None
		Cl.ON=C1CCc2cc(-c3nc(C4CCNCC4)[nH]c3-c3ccncc3)ccc21	Phenotype: Inactive; Curve_Description: None	Phenotype: Inactive; Curve_Description: None
9.19		CNC(=O)c1cncc(/C=C/c2ccccc2Cl)c1 [GW445017X]	Phenotype: Inactive; Curve_Description: None	
41.1		CC1=C(C(=O)Nc2ccc3[nH]ncc3c2)C(c2ccc(F)cc2)N=C(c2ccc(C(F)(F)F)nc2)N1 (stereo unspecified) [GSK-317354A]	Phenotype: Activator; Curve_Description: None	
23.1		Cl.Nc1nccc(-c2c(-c3ccc(F)cc3)ncn2C2CCNCC2)n1	Phenotype: Inactive; Curve_Description: None; also recorded: Phenotype: Activator; Curve_Description: None	Phenotype: Inactive; Curve_Description: None
		CS(=O)(=O)CCN(CC#N)Cc1ccc(-c2ccc3ncnc(Nc4ccc(OCc5cccc(F)c5)c(Cl)c4)c3c2)o1 [GW616030X]	Phenotype: Inactive; Curve_Description: None	Phenotype: Inactive; Curve_Description: None
32.6	18.3	O=C1Nc2ccc(-c3cccnc3)cc2C1=Cc1cc(Br)c(O)c(Br)c1 [GW429374A]		
	46.1	CCCN1CCC=C(c2ccc(Nc3nc(Nc4ccccc4C(N)=O)c4cc[nH]c4n3)c(C)c2)C1 [GSK-994854A]		Phenotype: Inactive; Curve_Description: None
		CNC(=O)c1cc(-c2ccc(F)cc2)cc(-c2ccc(S(=O)(=O)N3CCCC3)cc2)c1N [GSK-635416A]	Phenotype: Activator; Curve_Description: None	Phenotype: Inactive; Curve_Description: None
		COc1cc(C)c(NC(=O)CN(C)C)cc1Nc1nc(Nc2cccc(F)c2C(N)=O)c2cc[nH]c2n1 [GSK-2213727A]	Phenotype: Inactive; Curve_Description: None	Phenotype: Inactive; Curve_Description: None
		COc1ccc2cc(-c3c(-c4ccncc4)nc(-c4ccc(S(C)(=O)=O)cc4C)n3C)ccc2c1	Phenotype: Inactive; Curve_Description: None	Phenotype: Inactive; Curve_Description: None
20.6	23.1	Cc1ccc(O)cc1Nc1ccnc2cc(-c3ccccn3)ccc12 [GW440139A]		
25.9	18.3	COc1cc(N2CCN(C(C)C)CC2)ccc1Nc1nc(Nc2cccc3ncccc23)c2cc[nH]c2n1 [GSK-1511931A]		
		CCCNc1cccc(-n2ncc3c(N/N=C/c4ccncc4)ncnc32)c1 [GW794607X]	Phenotype: Inactive; Curve_Description: None	Phenotype: Inactive; Curve_Description: None
	32.6	CCS(=O)(=O)c1ccc(OC)c(Nc2nccc(N(C)c3ccc4c(C)n[nH]c4c3)n2)c1.Cl [GW654652C]		Phenotype: Inactive; Curve_Description: None
	25.9	NS(=O)(=O)c1cccc(-c2cc3ccncc3cc2OCc2ccccc2)c1 [GSK-980961A]		Phenotype: Inactive; Curve_Description: None
	29.1	Cc1cc(Cl)cc2c1NC(=O)C2=NNc1ccc(S(N)(=O)=O)cc1 [GW279320X]		Phenotype: Inactive; Curve_Description: None
		NS(=O)(=O)c1ccc(N/N=C2\C(=O)Nc3ccc(C(=O)NCc4ccncc4)cc32)cc1 [GW300657X]	Phenotype: Inactive; Curve_Description: None	Phenotype: Inactive; Curve_Description: None
		CC1=C(C(=O)Nc2cc(Cl)c3[nH]ncc3c2)C(c2ccc(C(F)(F)F)cc2)CC(=O)N1 (stereo unspecified) [GSK-466317A]	Phenotype: Inactive; Curve_Description: None	Phenotype: Inactive; Curve_Description: None
		c1ccc(-c2n[nH]cc2-c2ccnc(-c3ccc(OCCn4ccnc4)cc3)c2)nc1 [GW711782X]	Phenotype: Inactive; Curve_Description: None	Phenotype: Inactive; Curve_Description: None
		Fc1cccc(COc2ccc(Nc3ncncc3C#Cc3ccccc3)cc2Cl)c1 [GW651576X]	Phenotype: Inactive; Curve_Description: None	Phenotype: Inactive; Curve_Description: None
18.3		Fc1ccc(-c2nn3ncccc3c2-c2ccnc(Nc3ccc4c(c3)OCCO4)n2)cc1 [GW827099X]	Phenotype: Inactive; Curve_Description: None	
		COC(=O)c1cncc(/C=C/c2c(C)cc(O)cc2C)c1 [GW406731X]	Phenotype: Inactive; Curve_Description: None	Phenotype: Inactive; Curve_Description: None

AC50 ([2]; read-out: AC50) [µM]	AC50 ([1]; read-out: AC50) [µM]	Compound	AC50 [1]	AC50 [2]
16.3		COc1cccc(-n2ncc3c(N/N=C/c4ccc(C(=O)NCCN(C)C)cc4)ncnc32)c1.Cl [GW784307A]	Phenotype: Inactive; Curve_Description: None	
20.6		CS(=O)(=O)Nc1cccc(-c2ccc3c(NC(=O)C4CC4)n[nH]c3c2)c1	Phenotype: Inactive; Curve_Description: None	
20.6	13	COC(=O)c1ccc2c(c1)C(=Cc1cc(Br)c(O)c(Br)c1)C(=O)N2 [GW405841X]		
		CN(C)CCCn1c(-c2nonc2N)nc2cnccc21	Phenotype: Inactive; Curve_Description: None	Phenotype: Inactive; Curve_Description: None
18.3		O=C(Nc1n[nH]c2cc(-c3ccccc3)ccc12)C1CC1	Phenotype: Inactive; Curve_Description: None	
		COc1cc(Nc2nccc(-c3cnn4ncccc34)n2)cc(OC)c1 [GW801372X]	Phenotype: Inactive; Curve_Description: None	Phenotype: Inactive; Curve_Description: None
		CCn1c(-c2nonc2N)nc2cncc(C(=O)N3CCNCC3)c21.Cl	Phenotype: Activator; Curve_Description: None	Phenotype: Inactive; Curve_Description: None
		Fc1ccc(-c2ncn(C3CCNCC3)c2-c2ccnc(Oc3ccc(F)c(F)c3)n2)cc1	Phenotype: Inactive; Curve_Description: None	Phenotype: Inactive; Curve_Description: None
		Cl.NS(=O)(=O)c1ccc(N/N=C2\C(=O)Nc3cccc(CCc4ccncc4)c32)cc1 [GW352430A]	Phenotype: Inactive; Curve_Description: None	Phenotype: Inactive; Curve_Description: None
		Cl.NC(=O)c1ccc(-c2nc(-c3ccccn3)c(-c3ccc4c(c3)OCO4)[nH]2)cc1	Phenotype: Inactive; Curve_Description: None	Phenotype: Inactive; Curve_Description: None
16.3		COc1ccc(-c2cc(-c3c[nH]nc3-c3ccccn3)ccn2)cc1 [GW679410X]	Phenotype: Inactive; Curve_Description: None	
		CCn1c(-c2nonc2N)nc2cncc(C(=O)NCCNC)c21 [GW876790X]	Phenotype: Inactive; Curve_Description: None	Phenotype: Inactive; Curve_Description: None
		CCn1c(-c2nonc2N)nc2ccc(F)cc21 [GW785404X]	Phenotype: Inactive; Curve_Description: None	Phenotype: Inactive; Curve_Description: None
		COc1cccc(/C=N/Nc2ncnc3c2cnn3-c2cccc(OC)c2)c1 [GW829874X]	Phenotype: Inactive; Curve_Description: None	Phenotype: Inactive; Curve_Description: None
		CCn1c(-c2nonc2N)nc2c(C#CC(C)(C)O)ncc(OC3CCNCC3)c21.O=C(O)C(F)(F)F [GSK-619487A]	Phenotype: Inactive; Curve_Description: None	Phenotype: Inactive; Curve_Description: None
		COc1ccc(CNC(=O)c2ccc(-c3cc(-c4nnc(C)o4)ccc3C)cc2)cc1 [GW701032X]	Phenotype: Inactive; Curve_Description: None	Phenotype: Inactive; Curve_Description: None
		O=C(Nc1n[nH]c2nnc(-c3cccnc3)cc12)C1CC1.O=C(O)C(F)(F)F	Phenotype: Inactive; Curve_Description: None	Phenotype: Inactive; Curve_Description: None
		NC(=O)c1sc(-n2cnc3ccc(C(F)(F)F)cc32)cc1OCc1ccccc1Br [GW853606X]	Phenotype: Inactive; Curve_Description: None	Phenotype: Inactive; Curve_Description: None
	18.3	CCS(=O)(=O)c1ccc(OC)c(Nc2ncc(-c3ccccc3Cl)o2)c1 [GW622055X]		Phenotype: Inactive; Curve_Description: None
20.6	18.3	Fc1ccc(-c2ncn(C3CCNCC3)c2-c2ccnc(Oc3ccccc3)n2)cc1		
1.46		Cc1ccc(Nc2ccnc(Nc3cccc(C(N)=O)c3)n2)cc1O.Cl [GW575808A]	Phenotype: Inactive; Curve_Description: None	
		C[C@@H](Oc1cc(-n2cnc3ccc(OC[C@@H](O)CO)cc32)sc1C(N)=O)c1ccccc1Cl [GSK-978744A]	Phenotype: Inactive; Curve_Description: None	Phenotype: Inactive; Curve_Description: None

Compound	AC50 ([2]; read-out: AC50) [µM]	AC50 ([1]; read-out: AC50) [µM]	AC50 [1]	AC50 [2]
CS(=O)(=O)CCNCc1ccc(-c2ccc3ncnc(Nc4ccc(OCc5ccccc5)cc4)c3c2)o1.Cl [GW458787A]	18.3		Phenotype: Inactive; Curve_Description: None	
O=C(O)C(F)(F)F.[O-][S+]1CCN(Cc2ccc(-c3ccc4ncnc(Nc5ccc(OCc6cccc(F)c6)c(Cl)c5)c4c3)o2)CC1 [GW576609A]	18.3		Phenotype: Inactive; Curve_Description: None	
COc1ccc(C2=C(N3CCc4ccccc43)C(=O)NC2=O)cc1		20.6		Phenotype: Inactive; Curve_Description: None
Nc1nccc(C#Cc2cncnc2Nc2ccc(OCc3cccc(F)c3)c(Cl)c2)n1 [GW799251X]	14.6		Phenotype: Inactive; Curve_Description: None	
CN1CCN(Cc2ccc(-c3cc4ncnc(Nc5ccc(OCc6cccc(F)c6)c(Cl)c5)c4s3)o2)CC1 [GW784684X]		20.6		Phenotype: Inactive; Curve_Description: None
